Results taken from patent publication US7820623B2 (priority 2006, dated 2010).

Assays:
[1] = tested on: IL-2 production from PMA and αCD3 antibody stimulated human PBMCs; assay type: cell-based
[2] = tested on: IL-2R on CD4+ T cells in human whole blood; assay type: cell-based
[3] = target: fixed HEK 293 cells stably transfected with human Kv1.3 (Homo sapiens, UniProt P22001); experiment: Whole cell immunoassay (ELISA) on fixed HEK 293 cells overexpressing Kv1.3; assay type: binding
Procedure: Our peptibody reagent can be a useful and convenient tool for monitoring Kv1.3 channel expression in patients and have utility in diagnostic applications. The procedure shown in FIG. 34A and FIG. 34B follows.
FIG. 34A. A whole cell immunoassay was performed to show binding of intact Fc-L10-ShK[1-35] to Kv1.3 transfected HEK 293 cells (BioFocus plc, Cambridge, UK). Parent HEK 293 cells or HEK Kv1.3 cells were plated at 3×10e4 cells/well in poly-D-Lysine coated ninety-six well plates (#35-4461; Becton-Dickinson, Bedford, Mass.). Cells were fixed with formalin (Sigma HT50-1-1 Formalin solution, diluted 1:1 with PBS/0.5% BSA before use) by removing cell growth medium, adding 0.2 ml/well formalin solution and incubating at room temperature for 25 minutes and then washing one time with 100 μl/well of PBS/0.5% BSA. Wells were blocked by addition of 0.3 ml/well of BSA blocker (50-61-00; KPL 10% BSA Diluent/Blocking Solution, diluted 1:1 with PBS; KPL, Gaithersburg, Md.) followed by incubation at room temperature, with shaking, for 3 hr. Plates were washed 2 times with 1×KP Wash Buffer (50-63-00; KPL). […] Absorbance was read at 450 nm on a Molecular Devices SpectroMax 340 (Sunnyvale, Calif.).
FIG. 34B. […] Absorbances were read at 405 nm after stopping reactions by addition of 0.1 ml/well of 1% SDS.

[4] = target: HEK 293 cells overexpressing human Kv1.3 (Homo sapiens, UniProt P22001); experiment: Immunohistochemistry of binding to HEK 293 cells overexpressing human Kv1.3; details: 5 μg/ml peptibody
Procedure: Immunohistochemistry analysis of Fc-L10-ShK[1-35] binding to HEK 293 cells overexpressing human Kv1.3. HEK 293 cells overexpressing human Kv1.3 (HEK Kv1.3) were obtained from BioFocus plc (Cambridge, UK) and maintained per manufacturer's recommendation. The parental HEK 293 cell line was used as a control. Cells were plated on Poly-D-Lysine 24 well plates (#35-4414; Becton-Dickinson, Bedford, Mass.) and allowed to grow to approximately 70% confluence. HEK KV1.3 were plated at 0.5×10e5 cells/well in 1 ml/well of medium. HEK 293 cells were plated at a density of 1.5×10e5 cells/well in 1 ml/well of medium. Before staining, cells were fixed with formalin (Sigma HT50-1-1 Formalin solution, diluted 1:1 with PBS/0.5% BSA before use) by removing cell growth medium, adding 0.2 ml/well formalin solution and incubating at room temperature for ten minutes. Cells were stained by incubating with 0.2 ml/well of 5 μg/ml Fc-L10-ShK[1-35] in PBS/BSA for 30′ at room temperature. Fc-L10-ShK[1-35] was aspirated and then the cells were washed one time with PBS/0.5% BSA. Detection antibody (Goat F(ab)2 anti-human IgG-phycoerythrin; Southern Biotech Associates, Birmingham, Ala.) was added to the wells at 5 μg/ml in PBS/0.5% BSA and incubated for 30′ at room temperature. Wash cells once with PBS/0.5% BSA and examine using confocal microscopy (LSM 510 Meta Confocal Microscope; Carl Zeiss AG, Germany). […]

[5] = tested on: IL-2 production from αCD3 and αCD28 antibody stimulated human PBMCs; assay type: cell-based
[6] = tested on: IFNγ production from PMA and αCD3 antibody stimulated human PBMCs; assay type: cell-based
[7] = tested on: CD40L on CD4+ T cells in human whole blood; assay type: cell-based
[8] = tested on: T cell proliferation in human PBMCs; experiment: T cell proliferation (3H-thymidine incorporation) in anti-CD3/anti-CD28 stimulated human PBMCs; assay type: cell-based; details: two normal donors
Source text: Inhibition of T cell proliferation following anti-CD3 and anti-CD28 antibody stimulation of PBMCs. PBMC's were previously isolated from normal human donor Leukophoresis packs, purified by density gradient centrifugation (Ficoll Hypaque), cryopreserved in CPZ Cryopreservation Medium Complete (INCELL, MCPZF-100 plus 10% DMSO final). PBMC's were thawed (95% viability), washed, and seeded at 2×10^5 cells per well in culture medium (RPMI medium 1640; GIBCO) supplemented with 10% fetal calf serum, 100 U/ml penicillin, […] streptomycin, 2 mM L-glutamine, 100 μM non-essential amino acids, and 20 μM 2-ME) in 96-well flat-bottom tissue culture plates. Cells were pre-incubated with either anti-human CD32 (FcyRII) blocking antibody (per manufacturers instructions EASY SEP Human Biotin Selection Kit #18553, StemCell Technologies Vancouver, BC) or Fc-L10-ShK (100 nM-0.001 nM final) for 45 min. Fc-L10-ShK (100 nM-0.001 nM final) was then added to the cells containing anti-human CD32 blocking antibody while medium was added to the cells containing Fc-L10-ShK. Both sets were incubated for an additional 45 min before stimulating for 48 hr with aCD3/aCD28 (0.2 ng/ml and 100 ng/ml, respectively). Final assay volume was 200 ul. […] Cells were then harvested onto glass fiber filters and radioactivity was measured in a B-scintillation counter.

[9] = tested on: IFNγ production from αCD3 and αCD28 antibody stimulated human PBMCs; assay type: cell-based
[10] = tested on: adoptive transfer EAE model of multiple sclerosis; details: rat, in vivo, sc
[11] = tested on: thapsigargin-induced IL-2 production in human whole blood
[12] = rat, in vivo, iv
[13] = tested on: thapsigargin-induced IFN-g production in human whole blood; assay type: cell-based

Chain of HEK 293 cells overexpressing human Kv1.3 (P22001 whole entry): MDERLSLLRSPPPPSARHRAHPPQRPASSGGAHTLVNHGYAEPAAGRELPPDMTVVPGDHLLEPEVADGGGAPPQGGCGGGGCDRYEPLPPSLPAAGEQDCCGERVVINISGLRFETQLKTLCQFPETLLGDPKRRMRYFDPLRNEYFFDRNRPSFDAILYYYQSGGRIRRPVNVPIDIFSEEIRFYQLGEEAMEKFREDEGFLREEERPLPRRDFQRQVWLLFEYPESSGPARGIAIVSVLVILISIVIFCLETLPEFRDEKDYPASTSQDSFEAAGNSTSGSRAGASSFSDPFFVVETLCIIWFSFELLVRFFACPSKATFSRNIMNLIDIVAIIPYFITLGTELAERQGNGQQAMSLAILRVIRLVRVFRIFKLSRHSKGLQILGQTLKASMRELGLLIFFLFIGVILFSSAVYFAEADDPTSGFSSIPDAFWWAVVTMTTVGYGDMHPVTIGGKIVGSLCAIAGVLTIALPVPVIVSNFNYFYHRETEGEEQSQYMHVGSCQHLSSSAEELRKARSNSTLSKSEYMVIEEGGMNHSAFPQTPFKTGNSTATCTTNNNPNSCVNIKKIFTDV
Chain of fixed HEK 293 cells stably transfected with human Kv1.3 (P22001 whole entry): as above

Fc-L10-ShK[1-35]: Fc region of human IgG1 fused in-frame to L10 linker and a monomer of Kv1.3 inhibitor peptide ShK[1-35]
inhibition of IL-2 production [1]: complete inhibition
thapsigargin-induced upregulation of the IL-2R on T cells [2]: suppressed
enzyme-immunoassay response on fixed Kv1.3 transfected cells [3]: dose-dependent increase in response
staining of cells [4]: stains HEK 293 cells stably transfected with human Kv1.3
inhibition of IL-2 production [5]: nearly complete inhibition
inhibition of IFNγ production [6]: complete inhibition
thapsigargin-induced upregulation of CD40L on T cells [7]: suppressed
inhibition of T cell proliferation [8]: potently inhibits proliferation of T cells in a dose-dependent manner
inhibition of IFNg production [9]: nearly complete inhibition

CC[C@H](C)[C@@H]1NC(=O)[C@@H](NC(=O)[C@H](CO)NC(=O)[C@@H](N)CCCNC(=N)N)CSSC[C@@H](C(=O)O)NC(=O)[C@H]([C@@H](C)O)NC(=O)CNC(=O)[C@@H]2CSSC[C@@H]3NC(=O)[C@H](CCC(N)=O)NC(=O)[C@H](Cc4ccccc4)NC(=O)[C@H](C)NC(=O)[C@H]([C@@H](C)O)NC(=O)[C@H](CSSC[C@H](NC(=O)[C@H](Cc4ccccc4)NC(=O)[C@H](CO)NC(=O)[C@H](CC(C)C)NC(=O)[C@H](CCCNC(=N)N)NC(=O)[C@H](Cc4ccc(O)cc4)NC(=O)[C@H](CCCCN)NC(=O)[C@H](CCSC)NC(=O)[C@H](CO)NC(=O)[C@H](Cc4cnc[nH]4)NC(=O)[C@H](CCCCN)NC3=O)C(=O)N[C@@H](CCCNC(=N)N)C(=O)N[C@@H](CCCCN)C(=O)N[C@@H]([C@@H](C)O)C(=O)N2)NC(=O)[C@H](CCCNC(=N)N)NC(=O)[C@H](CO)NC(=O)[C@H](CCCCN)NC(=O)[C@@H]2CCCN2C(=O)[C@H]([C@@H](C)CC)NC(=O)[C@H]([C@@H](C)O)NC(=O)[C@H](CC(=O)O)NC1=O [ShK, reference compound]
body weight lost (average) [10]: 30 g
disease severity and survival [10]: developed severe disease and died
onset of disease [10]: 4 days
inhibition of IL-2 production [1]: partial inhibition
thapsigargin-induced upregulation of the IL-2R on T cells [2]: suppressed
inhibition of IL-2 production [5]: partial inhibition
inhibition of IFNγ production [6]: partial inhibition
thapsigargin-induced IL-2 production in human whole blood [11]: suppressed
thapsigargin-induced upregulation of CD40L on T cells [7]: suppressed
duration of significant suppression of Kv1.3 current (<70 POC) by serum [12]: ≤ 1 h
thapsigargin-induced IFN-g production in human whole blood [13]: suppressed
inhibition of IFNg production [9]: partial inhibition
